According to patent US10424806B2, “Organic non-aqueous cation-based redox flow batteries” (UCHICAGO ARGONNE, LLC, priority 2012, dated 2019):
Each block holds one compound with its values, some of them ahead of it.

Key:
[1] = Cyclic voltammetry in Pt/Li/Li three-electrode cell; format: physicochemical; conditions: for performance compared with quinoxaline: 0.005 M in Electrolyte B; for redox properties from cyclic voltammogram: lithium electrolyte and concentration differ per compound; for Potential: 10 mM in 1.2 M LiPF6 in EC/EMC (3:7 by weight), Pt/Li/Li
Experimental: The upper and lower redox potentials shown in FIG. 5 were determined by a combination of average peak potential and graphical analysis of the cyclic voltammograms over a range of scan rates (5, 10, 20, 50, 100, and 200 mV/s).
Cyclic voltammetry (CV) were performed in a custom-made airtight three-electrode electrochemical cell with a 2-mm diameter platinum disk working electrode and lithium metal counter and reference electrodes. Prior to use, the platinum disk electrode was dipped in nitric acid solution (about 50 vol % HNO3, Ricca Chemical Company) and then polished on a MICROCLOTH® pad with 0.3 μm and 0.05 μm alumina (Buehler Ltd., Lake Bluff, Ill.). After polishing, the electrode was thoroughly rinsed with distilled water and dried with house nitrogen. The electrochemical cell was then assembled in an Argon-filled glove box and transferred out to perform measurements. […] All evaluations were performed in triplicate at room temperature.
The redox potential of DBBB was calculated by averaging the oxidation and reduction peak potentials in the two different electrolytes at various scan rates (5, 10, 20, 50, 100, and 200 mV/s). […] The shift in the peak potential with the scan rate may be caused by the limited charge-transfer kinetics of the active species (DBBB) and the uncompensated resistance, which is commonly called the “iR drop”. Because the polarization from the kinetic effect and iR drop is triggered by the current flowing through the electrochemical cell, the average peak potential [(Epa+Epc)/2] gives a good estimation of the redox potential of the reversible electroactive species. […] Evaluations were performed in triplicate in a Pt/Li/Li cell at room temperature.

[2] = Intrinsic capacity and energy density (Table 1); format: physicochemical
Description: Table 1 provides a summary of the useful redox properties of these compounds.

[3] = Cyclic voltammetry in Pt/Na/Na cell with sodium electrolyte; format: physicochemical; conditions: NaPF6 in propylene carbonate
Experimental: The redox materials described herein also can be utilized with sodium-based electrolyte salts. For example, FIG. 22(a) provides a cyclic voltammogram obtained with about 17 mM DBBB in 0.247 M Na PF6 in propylene carbonate, in a Pt/Na/Na cell at scan rates of 5, 20, 50, and 100 mV/s. FIG. 22(b) provides a cyclic voltammogram obtained with about 13 mM 2,3,6-trimethylquinoxaline in 0.217 M NaPF6 in propylene carbonate at a 20 mV/s scan rate.

[4] = Solubility in solvent or electrolyte; format: physicochemical
[5] = Diffusion coefficient from Randle-Sevcik measurements; format: physicochemical
Experimental: 2,5-Di-tert-butyl-1,4-bis(2-methoxyethoxy)benzene (“DBBB”) is a redox material developed at Argonne National Laboratory for overcharge protection in Li-ion batteries. […] The diffusion coefficient of DBBB was determined to be about 1.30×10^−6 cm^2/s in the battery electrolyte based on Randle-Sevcik measurements. However, Electrolyte A is non-ideal for flow battery applications due to high volatility, extreme moisture sensitivity, and high materials cost. Thus, an electrolyte consisting of 0.2 M LiBF4 in propylene carbonate (“Electrolyte B”) was also investigated as a more robust and lower cost alternative. FIG. 2b show iR-corrected cyclic voltammograms of 0.005 M DBBB in Electrolyte A and in Electrolyte B at a scan rate of 20 mV/s. […] Thus, 2,5-di-tert-butyl-1,4-dialkoxybenzene compounds, such as DBBB, are active in different electrolyte systems, and the performance of these materials can be tailored by the choice of the electrolyte composition.

[6] = Li-ion cell, 100% overcharge; cited from earlier work

redox activity ([1]; Electrolyte B): no redox activity was observed
SMILES: FC(F)(F)c1cnc2ccccc2n1 [2-trifluoromethylquinoxaline]

performance compared with quinoxaline ([1]; Pt/Li/Li cell): lower activity
SMILES: Cc1cccc2nccnc12 [5-methylquinoxaline]

SMILES: Fc1ccc(B2Oc3c(F)c(F)c(F)c(F)c3O2)c(F)c1 [Compound 6]
redox properties from cyclic voltammogram ([1]; Pt/Li/Li cell): redox properties suitable for use as redox reactants for the positive electrolyte

Energy Density [2]: 599.7 Wh/Kg
Intrinsic Capacity [2]: 127.6 mAh/g
Potential [1]: 4.70 V vs. Li/Li
SMILES: COc1c(F)c(F)c(OC)c(F)c1F [TFDMB, 1,2,4,5-tetrafluoro-3,6-dimethoxybenzene]

SMILES: Fc1c(F)c(F)c(B2Oc3c(F)c(F)c(F)c(F)c3O2)c(F)c1F [Compound 8]
redox properties from cyclic voltammogram ([1]; Pt/Li/Li cell): redox properties suitable for use as redox reactants for the positive electrolyte

SMILES: O=C(c1ccccc1)c1ccccc1 [benzophenone]
redox properties from cyclic voltammogram ([1]; Pt/Li/Li cell): suitable redox properties

redox properties from cyclic voltammogram ([1]; Pt/Li/Li cell): suitable redox properties
SMILES: CN1c2ccccc2N(C)c2ccccc21 [5,10-dihydro-5,10-dimethylphenazine]

SMILES: Cc1ccc2nccnc2c1 [6-methylquinoxaline]
performance compared with quinoxaline ([1]; Pt/Li/Li cell): slightly better performance than quinoxaline

SMILES: Fc1c(F)c(F)c2c(c1F)OCCO2 [Compound 5]
redox properties from cyclic voltammogram ([1]; Pt/Li/Li cell): redox properties suitable for use as redox reactants for the positive electrolyte

Energy Density [2]: 520.9 Wh/Kg
Intrinsic Capacity [2]: 112.5 mAh/g
Potential [1]: 4.63 V vs. Li/Li
SMILES: CCOc1c(F)c(F)c(OCC)c(F)c1F [TFDEB, 1,2,4,5-tetrafluoro-3,6-diethoxybenzene]

SMILES: Fc1c(F)c(F)c2c(c1F)OB(c1cc(C(F)(F)F)ccc1C(F)(F)F)O2 [Compound 7]
redox properties from cyclic voltammogram ([1]; Pt/Li/Li cell): redox properties suitable for use as redox reactants for the positive electrolyte

redox activity ([1]; Electrolyte B): no redox activity was observed
SMILES: BrCc1nc2ccccc2nc1CBr [2,3-bis(bromomethyl)quinoxaline]

SMILES: [Cl-].[Cl-].c1ccc(C[n+]2ccc(-c3cc[n+](Cc4ccccc4)cc3)cc2)cc1 [bis-benzyl-4,4′-bipyridinium dichloride]
redox properties from cyclic voltammogram ([1]; Pt/Li/Li cell): suitable redox properties

redox properties from cyclic voltammogram [3]: suitable reversible redox properties
SMILES: Cc1ccc2nc(C)c(C)nc2c1 [2,3,6-trimethylquinoxaline]

solubility ([4]; organic solvent or mixture, in propylene carbonate): ≥ 2000 mM
SMILES: c1ccc2nccnc2c1 [Quinoxaline]

lower redox potential ([1]; Electrolyte B, Pt/Li/Li cell, average peak potential method): about 2.6 V
SMILES: Cc1cc2nc(-c3ccccn3)c(-c3ccccn3)nc2cc1C [6,7-dimethyl-2,3-di(2-pyridyl)quinoxaline]

redox activity ([1]; Electrolyte B): some redox activity
separation of oxidation and reduction events ([1]; Electrolyte B): about 1 V
SMILES: CC(=O)c1cnc2ccccc2n1 [2-Acetylquinoxaline]

diffusion coefficient ([5]; Electrolyte A): about 1.30×10^−6 cm^2/s
diffusion coefficient ([5]; Electrolyte B): about 1.53×10^−6 cm^2/s
redox potential, average of anodic and cathodic potentials [(Epa+Epc)/2] ([1]; 0.005 M in Electrolyte A (1.2 M LiPF6 in EC/EMC 3/7 by volume), room temperature): about 3.927 V vs. Li/Li^+
redox potential ([1]; 0.005 M in Electrolyte B (0.2 M LiBF4 in propylene carbonate), room temperature): 4.022 V vs. Li/Li^+
redox properties from cyclic voltammogram [3]: suitable reversible redox properties
SMILES: COCCOc1cc(C(C)(C)C)c(OCCOC)cc1C(C)(C)C [DBBB, 2,5-Di-tert-butyl-1,4-bis(2-methoxyethoxy)benzene]
potential at which active in overcharge protection [6]: about 4.0 V vs. Li/Li^+

Energy Density [2]: 422.5 Wh/Kg
Intrinsic Capacity [2]: 89.9 mAh/g
Potential [1]: 4.70 V vs. Li/Li
SMILES: COCCOc1c(F)c(F)c(OCCOC)c(F)c1F [TFBMEB, 1,2,4,5-tetrafluoro-3,6-bis(2-methoxyethoxy)benzene]

solubility in electrolyte solution ([4]; Electrolyte B): not soluble
SMILES: Oc1nc2ccccc2nc1O [2,3-Dihydroxyquinoxaline]
